Patent publication US10626077B2, “Salvianolic acid compound T, preparation method therefor, and use thereof” (TASLY PHARMACEUTICAL GROUP CO., LTD., priority 2013, dated 2020)

How the values were obtained:
[1] = system: rats with myocardial infarction induced by coronary artery ligation; assay: Myocardial infarction rate (TTC staining) after coronary artery ligation; type: in vivo, SD rats; details: high-dose group compared with aspirin group; FIG. 11 heart biopsy
Procedure: Clean male SD rats were taken and placed in groups randomly according to the body-weight, including pseudo operation group (distilled water), model group (distilled water), aspirin group, (S)-salvianolic acid T low-dose group, (S)-salvianolic acid T high-dose group, and there were 10 rats in each group. Each group of rats were administrated by gastric administration once a day, continuously for 10 days. […] Recording standard II lead ECG at 5 minutes before surgery, 0 s, 1 min, 5 min, 15 min, 1 h, 4 h after the ligation, to investigate the changes of J point of ECG. Taking out the heart immediately after the end of the experiment, washing away the blood with normal saline, cutting off the atrium and the bottom of the blood vessels, weighing the mass of the ventricle, cutting the ventricle into 5 pieces on average along the atrioventricular groove and putting them into 1% (w/v) TTC solution, dyeing in the water bath at a constant temperature of 37 °C for 5 min, taking digital photos firstly after taking them out, then separating the unstained parts (that is, the infarct parts) and weighing to calculate the percentage of them in the mass of total ventricular (myocardial infarction percentage), and performing t test with ischemia model group. The formula for calculating the infarct percentage is as follows: Infarct percentage (%)=(the mass of pale areas/the mass of the ventricle)×100%

[2] = system: L929 cells induced by TGF-β1; assay: Inhibition of L929 cell proliferation induced by TGF-β1 (MTT); type: cell-based; details: 2 μg/L TGF-β1, 72 h, MTT method
Procedure: L929 cells with a cell population of 5×10^7/L adjusted by DMEM culture solution containing 10% fetal bovine serum were seeded into 96 well plate, cultured for 24 h. Supplementing the same culture medium containing 2 μg/L TGF-β1 and (S)/(R)-salvianolic acid T of different concentrations. There were 6 multiple pores in each group, final concentration of (S)/(R)-salvianolic acid T was set as 0, 1, 3, 10, 20, 40, 80, 150 μmol/L. Removing medium after being cultured for 72 h, assaying the cell activity by MTT method.

[3] = Determination of reducing capacity (potassium ferricyanide / ferric chloride, absorbance at 700 nm)
Procedure: 0.5 ml of 200 mM phosphate buffer (pH6.8) containing different concentrations of the (S)/(R)-salvianolic acid T and 0.5 ml of 1.0% (w/v) potassium ferricyanide solution were sucked respectively and cooled on an ice bath after being heated on a water bath (50[…]) for 20 min. 0.5 ml of 10% trichloroacetic acid solution was added and centrifuged at […] for 10 min. 1.0 ml of the resulting supernatant was taken, into which 1.0 ml of distilled water and 0.2 ml of 0.1% (w/v) ferric chloride solution were added, stood still for 10 min and the absorbance was measured at 700 nm. Meanwhile, the blank experiment was carried out. Vitamin C is a strongly reducing substance, acting as positive control in this study. Reducing capacity of the sample is represented by subtracting the absorbance of the blank control from the absorbance of the tested sample. Thus, it means the higher absorbance, the stronger reducing capacity.

[4] = system: mice pulmonary fibrosis induced by bleomycin; assay: Anti-pulmonary fibrosis experiment in mice induced by bleomycin; type: in vivo, Kunming mice; details: 3 weeks
Procedure: Dividing the 40 mice into 4 groups: □ normal control group, given nasal dripping of normal saline, drenched with normal saline; □ model control group:given nasal dripping of bleomycin, drenched with normal saline; □(S)-salvianolic acid T group (16 mg/kg): given nasal dripping of bleomycin, drenched with (S)-salvianolic acid T solution; □(R)-salvianolic acid T group (16 mg/kg): given nasal dripping of bleomycin, drenched with (R)-salvianolic acid T solution; 10 mice in each group.
On the first day of the experiment, the mice were anesthetized with chloral hydrate, each mouse was given disposable nasal dripping of 50 μg bleomycin to establish the pulmonary fibrosis model. On the second day of the experiment, two treatment groups were drenched with (S)/(R)-salvianolic acid T, the model group and the normal group were drenched with equal volume of normal saline, once each day, 3 consecutive weeks. On the 21th day of the experiment, serum was separated from the blood collected from the orbital vein to detect TGF-β1, the mice were killed to take lungs, ground with double distilled water (the ratio of lungs and double distilled water was 1:5 (w/v)) into tissue homogenate, centrifuged to detect the MDA, superoxide dismutase (SOD), catalase (CAT), peroxidase (POD) in the tissues.

[5] = 16 mg/kg, lung tissue homogenate

In the case of `O=C(/C=C/c1ccc(O)c(O)c1/C(=C\c1ccc(O)c(O)c1)C(=O)O)O[C@H](Cc1ccc(O)c(O)c1)C(=O)O` [(R)-salvianolic acid T], the “effect on preventing acute myocardial infarction induced by coronary artery ligation” value [1] is reported as “equal effect”, the IC50 [2] is reported as 26.9 µM and the “reducing capacity compared with vitamin C” value ([3]; compared with positive control vitamin C) is reported as “much stronger than that of vitamin C”. The “reducing capacity (absorbance at 700 nm minus blank control)” value ([3]; sample 3.125 μg/ml) was 0.152 ± 0.034, the “reducing capacity (absorbance at 700 nm minus blank control)” value ([3]; sample 6.25 μg/ml) was 0.212 ± 0.009 and the “reducing capacity (absorbance at 700 nm minus blank control)” value ([3]; sample 12.5 μg/ml) was 0.042 ± 0.011. For the same compound, the “reducing capacity (absorbance at 700 nm minus blank control)” value ([3]; sample 25 μg/ml) was 0.761 ± 0.018, the “reducing capacity (absorbance at 700 nm minus blank control)” value ([3]; sample 50 μg/ml) was 1.561 ± 0.026 and the “Serum TGF-β1” value ([4]; 16 mg/kg drenched once each day, day 21) was 254 ± 29 ng/L. For the same compound, the CAT [4, 5] was 23.1 ± 2.9 U/g, the MDA [4, 5] was 311 ± 29 µg/g and the POD [4, 5] was 16.4 ± 1.9 U/g. The SOD [4, 5] was 52.2 ± 5.1 U/g and the “Tissue TGF-β1” value [4, 5] was 562 ± 69 pg/g.
